How the values were obtained:
Format in all cases: in vivo
[1] = test system: TGF-β1-induced fibrotic plaque in the rat tunica albuginea; assay: TGF-β1 rat model of Peyronie's disease, plaque and collagen deposition by Masson staining with QIA; conditions: long-term oral L-NIL, TGF-β1 injected rat
Description: TGF-β1 rat model. Male Fisher 344 rats, 9-11 month old purchased from the NIH/NIA colony (Harlan Sprague-Dawley, Inc., San Diego, Calif.) and maintained under controlled temperature and lighting, were anesthetized and injected in the penile TA at the middle of the penis with either vehicle only (saline, group 1) or 0.5 μg recombinant human TGF-β1 (Biotech Diagnostic, Laguna Niguel, Calif., groups 2-5) as disclosed (Ferrini et al., 2002; Vernet et al., 2002). After the injection, groups 1 and 2 were given drinking water while the other groups received water with L-arginine (2.25 g/kg/day, group 3) (Moody et al., 1997), or sildenafil (10 mg/kg/day, group 4) or pentoxifylline (10 mg/kg/day, group 5). Forty-five days later, or as indicated, animals were sacrificed and perfused through the left ventricle with saline followed by 4% formalin ((Ferrini et al., 2002; Vernet et al., 2002). After the penises were excised, the penile skin was denuded by removing the glans and adhering non-crural tissue. The penile shaft was separated from the crura and 2-3 mm transverse slices were cut around the site of the saline or TGF-β1 injection. All tissues were post-fixed overnight in 4% formalin, washed in PBS and stored at 4° C.
In the case of tissue sections, the determinations of the collagen/smooth muscle ratio were carried out with Masson trichrome (Ferrini et al., 2002; Davila et al., 2003b) on adjacent 5 μm paraffin-embedded cross-sections from the human normal tunical or plaque tissues, or from a 2 mm area around the site of injection in the rat saline- and TGF-β1-injected shaft tissues. Other distal sections were obtained along the rat penile shaft.
The quantitation of the staining obtained by either histochemical or immunohisto/cytochemical techniques was performed by computerized densitometry using the ImagePro 4.01 program (Media Cybernetics, Silver Spring, Md.), coupled to an Olympus BHS microscope equipped with a Spot RT digital camera or VCC video camera (Wang et al., 2001; Ferrini et al., 2001a, 2001b; Davila et al., 2003b).

[2] = test system: collagen I promoter; assay: Collagen I promoter reporter plasmid (β-galactosidase, luminometry) injected into the rat PD-like plaque; conditions: L-NIL treated TGF-β1 rat, vs control TA
From the text: The effect of L-NIL in increasing collagen in the TA of the TGF-β1 rat model may be due to an increase in collagen synthesis, a decrease in its normal breakdown, or both. To determine whether the larger PD plaque in the L-NIL treated rat is due, at least in part, to an increase in collagen I synthesis (the most prevalent collagen protein in the TA), and not simply to the inhibition of collagenolysis by the MMPs, we injected a cDNA plasmid construct of the collagen I promoter driving the expression of a reporter gene (Magee et al., 2002a) into the site of the original TGF-β1 or saline injection, 10 days prior to sacrifice and 35 days after the TGF-β1 injection. This plasmid is an indicator of collagen I transcriptional activity within the rat PD plaque.

[3] = test system: TGF-β1-induced fibrotic plaque in the rat tunica albuginea; assay: Nitrotyrosine and ROS marker (heme-oxygenase I) detection in the TA of the TGF-β1 rat model
Description: (§1) The determinations of iNOS, nitrotyrosine, heme-oxygenase I, PAI-I (Davila et al., 2003b), manganese superoxide dismutase (MnSOD), and CuZn SOD (Cu/Zn SOD) (Martin et al., 1994) were carried out on 5 μm paraffin-embedded adjacent tissue sections, that. were quenched for endogenous peroxidase activity after deparaffinization and rehydration. Sections were blocked with normal goat serum, and incubated with polyclonal IgG antibodies against mouse iNOS (1:500) (Transduction Laboratories, Lexington, KT), nitrotyrosine (1:100) (Upstate, Lake Placid, N.Y.), Mn SOD and Cu/Zn SOD (Oxygen, Portland, Oreg.) (1:800 and 1:500 respectively), heme oxygenase I (Stressgen, San Diego, Calif.), or PAI-1 (Abcam Ltd, Cambridge, UK). For negative controls the first antibodies were replaced by IgG isotype. The detection was based on a secondary anti-rabbit biotinylated antibody (1:200) for iNOS and nytrotyrosine (Calbiochem, La Jolla, Calif.), or anti-sheep biotinylated antibody (1:200) for Cu/Zn and Mn SOD, followed by the ABC complex (1:100) (Calbiochem) and 3,3′ diaminobenzidine (spelling) (DAB) (Sigma, St Louis Mo.). Sections were counterstained with hematoxylin.
The studies with L-arginine detailed in Example 1 show modulation of the size of the PD plaque by NO. […]

[4] = test system: arterial media of aged Brown Norway rats; assay: Aged rat arterial tree model, Masson staining (SMC/collagen), intima/media thickness and lumen diameter; conditions: for intima media thickness / lumen diameter: OLD + L-NIL
Description: (§2) Arterial Tree Rodent Model. Young (3-month) and aged (22-24 month) male Brown Norway rats were obtained from the NIH/NIA colony (Harlan Sprague-Dawley, Inc., San Diego, Calif.), and maintained under controlled temperature and lighting. One half of the aged animals were treated for 3 weeks with L-NIL at 0.1 g/l in the drinking water, while the rest of the animals received plain drinking water. Animals were anesthetized, pretreated with heparin, and perfused through the left ventricle with saline followed by 4% formalin. The abdominal aorta, brachial and femoral neurovascular bundles as well as the penis, denuded of its skin, were removed and post-fixed overnight in 4% formalin, and washed and stored in PBS at 4 C until paraffin embedding.
SMC and collagen fibers within the corporal tissue and vascular tree were estimated by Masson trichromic staining (Sigma Diagnostic, St. Louis, Mo.) (Ferrini et al., 2002; Vernet et al., 2002; Davila et al, […]) in sections adjacent to those used for immunohistochemical staining, followed by image analysis to measure the ratio between SMC (red) and collagen fibers (blue). The results were expressed as red/blue ratios per area (see below). In the arterial tree, the intima/media thickness (IMT), and the diameter of the lumen were also measured.
(§3) For iNOS, nitroyrosine, heme-oxygenase, PAI-1, MnSOD and Cu/Zn SOD determination, at least 6 sections per specimen were analyzed. Each slide assayed had its corresponding negative control. In certain cases, the number of immuno-positive cells was determined as a percentage of the total counterstained nuclei in a computerized grid. In the Masson staining, the ratio between SMC (red) and collagen fibers (blue) was obtained and expressed per area.

[5] = test system: arterial media of aged Brown Norway rats; assay: Aged rat arterial tree model, immunohistochemistry for iNOS, nitrotyrosine, Cu/Zn SOD, heme oxygenase I, PAI
Description: as §2, §1, §3

[6] = test system: SMC in the media of the penile resistance arteries; assay: Aged rat arterial tree model, TUNEL apoptosis in the media of the penile arteries; conditions: aged rats, L-NIL treatment
Description: as §2, §3

## CC(=N)NCCCC[C@H](N)C(=O)O [L-NIL, L-iminoethyl-L-lysine]
[1]
  expansion and thickening of the TA due to collagen fiber deposition: remarkable expansion and thickening of the TA
[2]
  expression of the reporter β-galactosidase driven by the collagen I promoter (luminometry in tissue extracts): considerably intensified
[3]; iNOS activity blocked with L-NIL in the TGF-β1 rat model
  ROS levels: considerable elevation
[3]; long-term oral L-NIL, TGF-β1 injected rat
  peroxynitrite as indicated by nitrotyrosine formation in the TA: considerable increase
[4]; aged rats, L-NIL for 3 weeks
  collagen fibers within the media of the aorta and the dorsal penile artery: further increase in the collagen fibers
[4]; aged rats, L-NIL, aorta, femoral, dorsal, with the exception of the bulbourethral artery
  amount of collagen within the media (SMC/collagen ratio, image analysis): further exacerbation in the amount of collagen
[4]; aorta
  intima media thickness: 85.2 ± 6.6 μm
[4]; bulbo urethral
  intima media thickness: 9.9 ± 0.7 μm
  lumen diameter: 47.3 ± 6.6 μm
[4]; femoral
  intima media thickness: 51.8 ± 4.6 μm
[4]; penile dorsal
  intima media thickness: 23.6 ± 3.3 μm
  lumen diameter: 105.5 ± 16. μm
[5]; L-NIL
  effect on PAI expression in the aged media (quantitative image analysis): negligible
  expression of heme oxygenase I in the penile dorsal artery: did not induce a further significant change
  iNOS expression in the arterial media: reduction in iNOS expression
  peroxynitrite formation (nitrotyrosine) in the arterial media: reduction in peroxynitrite formation
[5]; L-NIL blockade of iNOS activity
  increase of Cu/Zn SOD (indirect marker of ROS), image analysis: 40 to 50%
[6]
  apoptotic index, dorsal and bulbourethral penile arteries: reduction

From US8133903B2, “Methods of use of inhibitors of phosphodiesterases and modulators of nitric oxide, reactive oxygen species, and metalloproteinases in the treatment of peyronie's disease, arteriosclerosis and other fibrotic diseases” (Los Angeles Biomedical Research Institute at Harbor—UCLA …, priority 2003, dated 2012)
